For 43 molecules, IC50 results are on record in patent US20170037028A1 (BAYER PHARMA AKTIENGESELLSCHAFT, priority 2013, published 2017).

This assay addresses T1, GLUT1 (Homo sapiens, UniProt P11166).
T1 sequence (P11166 1-492): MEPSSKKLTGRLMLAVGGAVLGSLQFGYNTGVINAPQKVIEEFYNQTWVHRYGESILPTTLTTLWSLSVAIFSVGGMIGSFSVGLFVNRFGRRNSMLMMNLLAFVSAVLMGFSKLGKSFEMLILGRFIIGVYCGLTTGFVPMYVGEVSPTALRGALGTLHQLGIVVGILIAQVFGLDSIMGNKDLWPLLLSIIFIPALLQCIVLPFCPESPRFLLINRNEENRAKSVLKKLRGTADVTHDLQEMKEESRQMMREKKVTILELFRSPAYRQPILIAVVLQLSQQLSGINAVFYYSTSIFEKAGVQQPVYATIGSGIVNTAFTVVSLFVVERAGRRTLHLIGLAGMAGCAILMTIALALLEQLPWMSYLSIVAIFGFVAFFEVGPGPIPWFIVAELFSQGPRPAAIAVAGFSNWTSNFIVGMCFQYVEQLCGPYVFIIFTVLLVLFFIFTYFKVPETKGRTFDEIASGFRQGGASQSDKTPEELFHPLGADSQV
Nature of the assay: Indirect measurement of GLUT1 activity by quantification of intracellular ATP levels (glucose induced ATP increase). Format: cell-based. The arrangement: endogenous in cells; host or cells: DLD1 or CHO-K1. Conditions: read-out: IC50 regarding glucose induced ATP increase (GLUT1 inhibition). In outline:
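Intracellular ATP was measured by CellTiter-Glo luminescence as an indirect readout of transport: glucose-driven for GLUT1, fructose-driven for GLUT2. DLD1 or CHO-K1 cells were used alongside an oxidative phosphorylation inhibitor. Beforehand, cells were held overnight in glucose-free 1% FCS medium to deplete ATP.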
On to `Cc1nn(Cc2ccc(C(=O)NCc3cccnc3)cn2)c(C)c1NC(=O)c1cc(C(F)(F)F)nc2ccc(Br)cc12` [Example 1170], for which the IC50 (commonly the concentration that gives 50% inhibition) was 189 nM. Take `Cc1nn(Cc2ccc(C(N)=O)cn2)c(C)c1NC(=O)c1cc(C(N)=O)nc2ccc(F)cc12` [Example 1207]: the half-inhibitory concentration (IC50) is 477 nM. As for `Cc1ccc2nc(C(N)=O)cc(C(=O)Nc3c(C)nn(Cc4ccc(F)cc4)c3C)c2c1` [Example 1377], the IC50 was determined as 1.7 nM. On to `Cc1nn(Cc2ccc(F)cc2)c(C)c1NC(=O)c1cc(C(F)(F)F)nc2c(Br)cccc12` [Example 18, 8-bromo-N-[1-(4-fluorobenzyl)-3,5-dimethyl-1H-pyrazol-4-yl]-2-(trifluoromethyl)quinoline-4-carboxamide], for which the IC50 was 12.4 nM. Take `Cc1c(NC(=O)c2cc(C(F)(F)F)nc3ccc(Br)cc23)c(C(F)(F)F)nn1Cc1ccncc1C#N` [Example 1105]: the IC50 was found to be 48.2 nM. On to `COc1cc(C(=O)Nc2c(C)nn(Cc3ccccn3)c2C)c2ccccc2n1` [Example 110, N-[3,5-dimethyl-1-(pyridin-2-ylmethyl)-1H-pyrazol-4-yl]-2-methoxyquinoline-4-carboxamide], for which the IC50 amounted to 708 nM. `Cc1cc(Cn2nc(C(F)(F)F)c(NC(=O)c3cc(C(N)=O)nc4cc(F)ccc34)c2C)ccc1C#N` [Example 1695]: the IC50 is 4.7 nM.

For the molecule `Cc1nn(Cc2ccccc2C#N)c(C)c1NC(=O)c1cc(C(F)(F)F)nc2cc(F)c(F)cc12` [Example 175, N-[1-(2-cyanobenzyl)-3,5-dimethyl-1H-pyrazol-4-yl]-6,7-difluoro-2-(trifluoromethyl)quinoline-4-carboxamide], the IC50 turned out to be 70.7 nM. For `Cc1c(NC(=O)c2cc(C(F)(F)F)nc3ccc(Br)cc23)c(C(F)(F)F)nn1Cc1ccc(C#N)cn1` [Example 362, 6-bromo-N-{1-[(5-cyanopyridin-2-yl)methyl]-5-methyl-3-(trifluoromethyl)-1H-pyrazol-4-yl}-2-(trifluoromethyl)quinoline-4-carboxamide] the value was 5.5 nM. For the molecule `Cc1nn(Cc2ccc(C(C)O)cc2)c(C)c1NC(=O)c1cc(C(N)=O)nc2ccccc12` (racemic) [Example 1635], the IC50 came out at 45.4 nM. For `CCc1nn(Cc2ccc(C#N)cc2)c(CC)c1NC(=O)c1cc(C(N)=O)nc2cc(Cl)ccc12` [Example 313, 7-chloro-N^4-[1-(4-cyanobenzyl)-3,5-diethyl-1H-pyrazol-4-yl]quinoline-2,4-dicarboxamide] the value was 185 nM; for `Cc1nn(Cc2ccc(C#N)c(F)c2)c(C)c1NC(=O)c1cc(C(F)(F)F)nc2ccc(Br)cc12` [Example 218, 6-bromo-N-[1-(4-cyano-3-fluorobenzyl)-3,5-dimethyl-1H-pyrazol-4-yl]-2-(trifluoromethyl)quinoline-4-carboxamide], 3.4 nM.

Consider `Cc1ccccc1Cn1nc(C)c(NC(=O)c2cc(C(F)(F)F)nc3ccc(Br)cc23)c1C` [Example 24, 6-bromo-N-[3,5-dimethyl-1-(2-methylbenzyl)-1H-pyrazol-4-yl]-2-(trifluoromethyl)quinoline-4-carboxamide], for which the IC50 was 15.5 nM. `COC(=O)N1CCC(Cn2nc(C)c(NC(=O)c3cc(C(N)=O)nc4ccccc34)c2C)CC1` [Example 1155]: the IC50 turned out to be 140 nM. In the case of `Cc1c(NC(=O)c2cc(C(N)=O)nc3ccccc23)c(C(F)(F)F)nn1Cc1ccc(C(C)(C)C#N)cc1` [Example 1667], the IC50 stood at 46.6 nM. `Cc1c(NC(=O)c2cc(C(N)=O)nc3ccccc23)c(C(C)C)nn1Cc1ccc(C#N)cc1` [Example 322, N^4-[1-(4-cyanobenzyl)-3-isopropyl-5-methyl-1H-pyrazol-4-yl]quinoline-2,4-dicarboxamide]: the IC50 came to 1.9 nM.

As to `Cc1nn(Cc2ccc(C(=O)N3CCC[C@@H]3CO)cc2)c(C)c1NC(=O)c1cc(C(F)(F)F)nc2ccc(Br)cc12` [Example 1081], the IC50 was 26.3 nM. As to `Cc1nn(Cc2ccc(F)cc2C#N)c(C)c1NC(=O)c1cc(C(N)=O)nc2cccc(F)c12` [Example 1662], the IC50 amounted to 4 nM. `Cc1c(NC(=O)c2cc(S(C)=NC#N)nc3ccccc23)c(C(F)(F)F)nn1Cc1ccc(C#N)cc1` (racemic) [Example 385, (±)-N-[1-(4-cyanobenzyl)-5-methyl-3-(trifluoromethyl)-1H-pyrazol-4-yl]-2-(N-cyano-S-methylsulfinimidoyl)quinoline-4-carboxamide]: the IC50 was found to be 81.7 nM. Turning to `Cc1c(NC(=O)c2cc(C(N)=O)nc3ccccc23)c(C(F)(F)F)nn1C(C)c1ccc(C#N)cc1` (racemic) [Example 333, (±)-N^4-{1-[1-(4-cyanophenyl)ethyl]-5-methyl-3-(trifluoromethyl)-1H-pyrazol-4-yl}quinoline-2,4-dicarboxamide], the IC50 was 0.6 nM.

For `COc1cc(C(=O)Nc2c(C)nn(Cc3ccc(F)cc3)c2C)c2ccccc2n1` [Example 27, N-[1-(4-fluorobenzyl)-3,5-dimethyl-1H-pyrazol-4-yl]-2-methoxyquinoline-4-carboxamide], the IC50 was 16.5 nM. Take `COc1ccc(Cn2nc(C(F)(F)F)c(NC(=O)c3cc(C(F)(F)F)nc4ccc(Br)cc34)c2C)cc1` [Example 1035]: the IC50 came out at 5 nM.

Take `Cc1nn(Cc2ccc(F)cc2)c(C)c1NC(=O)c1cc(C(N)=O)nc2ccc(F)cc12` [Example 229, 6-fluoro-N^4-[1-(4-fluorobenzyl)-3,5-dimethyl-1H-pyrazol-4-yl]quinoline-2,4-dicarboxamide]: the IC50 turned out to be 4.6 nM. Turning to `COc1ccc(Cn2nc(C)c(NC(=O)c3cc(C)nc4ccc(C)cc34)c2C)cc1` [Example 4, N-[1-(4-methoxybenzyl)-3,5-dimethyl-1H-pyrazol-4-yl]-2,6-dimethylquinoline-4-carboxamide], the IC50 was determined as 3.8 nM. As for `Cc1nn(Cc2ccc(C#N)cc2)c(C)c1NC(=O)c1cc(C(N)=O)nc2ccccc12` [Example 259, N^4-[1-(4-cyanobenzyl)-3,5-dimethyl-1H-pyrazol-4-yl]quinoline-2,4-dicarboxamide], the IC50 is 9.7 nM. Consider `Cc1c(NC(=O)c2cc(C(N)=O)nc3ccc(Br)cc23)c(C(F)(F)F)nn1Cc1ccc(C#N)cn1` [Example 358, 6-bromo-N^4-{1-[(5-cyanopyridin-2-yl)methyl]-5-methyl-3-(trifluoromethyl)-1H-pyrazol-4-yl}quinoline-2,4-dicarboxamide], for which the IC50 amounted to 1.2 nM. As to `Cc1nn(Cc2cccnc2C#N)c(C)c1NC(=O)c1cc(C(N)=O)nc2cc(F)c(F)cc12` [Example 220, N^4-{1-[(2-cyanopyridin-3-yl)methyl]-3,5-dimethyl-1H-pyrazol-4-yl}-6,7-difluoroquinoline-2,4-dicarboxamide], the IC50 stood at 6.4 nM. As for `Cc1ccc2nc(C)cc(C(=O)Nc3c(C)nn(Cc4ccc(C#N)cc4)c3C)c2c1` [Example 44, N-[1-(4-cyanobenzyl)-3,5-dimethyl-1H-pyrazol-4-yl]-2,6-dimethylquinoline-4-carboxamide], the IC50 was 32.1 nM.

With `Cc1c(NC(=O)c2cc(C(N)=O)nc3cccc(F)c23)c(C(F)(F)F)nn1Cc1cc(F)ccc1C#N` [Example 1654], the IC50 amounted to 221 nM. For `Cc1nn(Cc2ccn(C)n2)c(C)c1NC(=O)c1cc(C(N)=O)nc2ccccc12` [Example 1569] the value was 67.5 nM. On to `Cc1nn(Cc2cccc(OC(F)(F)F)c2)c(C)c1NC(=O)c1cc(C(N)=O)nc2cccc(F)c12` [Example 1587], for which the IC50 was 41.8 nM.

`Cc1nn(Cc2ccc(CC#N)cc2)c(C)c1NC(=O)c1cc(C(N)=O)nc2ccccc12` [Example 1614]: the IC50 turned out to be 0.8 nM. In the case of `COc1ccc(Cn2nc(C)c(NC(=O)c3cc(C(F)(F)F)nc4ccc(Br)cc34)c2C)cn1` [Example 1025], the IC50 was found to be 2.8 nM. For `Cc1nn(Cc2cccc(C(C)O)c2)c(C)c1NC(=O)c1cc(C(N)=O)nc2ccccc12` (racemic) [Example 1645] the value was 319 nM; for `Cc1nn(Cc2ccc(F)cc2)c(C(N)=O)c1NC(=O)c1cc(C(F)(F)F)nc2ccc(Br)cc12` [Example 1197], 385 nM; for `Cc1nn(Cc2ccc(F)cc2)c(C)c1NC(=O)c1cc(C(F)(F)F)nc2ccc(NC(=O)C(N)=O)cc12` [Example 1242], 1560 nM. `Cc1nn(Cc2ccc(F)cc2)c(C)c1NC(=O)c1cc(C(F)(F)F)nc2cc(C(F)(F)F)ccc12` [Example 1276]: the IC50 came out at 3810 nM.

`COc1ccc(CCn2nc(C)c(NC(=O)c3cc(C(N)=O)nc4cc(F)c(Cl)cc34)c2C)cc1` [Example 1346]: the IC50 was 10.6 nM. As for `COc1cc(C(=O)Nc2c(C#N)nn(Cc3ccc(F)cc3)c2C)c2ccccc2n1` [Example 1418], the IC50 turned out to be 34.1 nM.

In the case of `Cc1c(NC(=O)c2cc(C(N)=O)nc3cccc(F)c23)c(C(F)(F)F)nn1Cc1cccc(C#N)c1` [Example 1581], the IC50 amounted to 26.9 nM.

Consider `CCc1noc(Cn2nc(C(F)(F)F)c(NC(=O)c3cc(C(N)=O)nc4cc(F)c(Cl)cc34)c2C)n1` [Example 1544], for which the IC50 is 15.7 nM. For `Cc1nn(Cc2cc(C(C)C)no2)c(C)c1NC(=O)c1cc(C(N)=O)nc2cc(F)ccc12` [Example 1563] the value was 35.5 nM; for `Cc1nn(Cc2ccc(C(=O)N3CCCC3)cc2)c(C)c1NC(=O)c1cc(C(F)(F)F)nc2ccc(Br)cc12` [Example 1033], 4.2 nM.
